The source of these data is paper PMC5520048 (Nature Communications, 2017).

pKd: −log10 of the molar value.

One series concerns albumin. To be noted: cited from earlier work.
For series [1] the following is noted: applied intravenously; cited from earlier work.
For series [2], the target named is insulin detemir (Homo sapiens) (UniProt P01308). To be noted: cited from earlier work.
The target of the next series is T1, Human albumin (Homo sapiens, UniProt P02768).
T1 construct: purchased Sigma-Aldrich A1653
Description: Fluorescence polarization albumin binding assay, purified human albumin. How it is done: Forty-five microlitre of the dilutions were added to 15 μl of fluorescent peptide (100 nM) in black 96-well half area microtitre plates. […] The final concentration of fluorescent peptide was 25 nM in all wells. Fluorescence anisotropy was measured with an Infinite M200Pro plate reader (Tecan) using an excitation filter at 485 nm and an emission filter at 535 nm. Dissociation constant (KD) were determined by nonlinear regression analysis of anisotropy versus the total concentration of proteins [P]T using the following equation: […]
A is the experimental fluorescence anisotropy. Af and Ab are the fluorescence anisotropy for the free and the fully bound fluorescent ligand, respectively. [L]T and [P]T represent the total fluorescent ligand and protein concentration, respectively. KD is the dissociation constant for the binding equilibrium. Values were calculated with Prism 5 (GraphPad software).

insulin detemir (Homo sapiens), sequence (F8WCM5 25-53, chain 1 of 2): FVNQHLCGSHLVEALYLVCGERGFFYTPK
insulin detemir (Homo sapiens), sequence (P01308 90-110, chain 2 of 2): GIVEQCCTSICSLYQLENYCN

With insulin degludec, in the series on albumin, the “higher affinity for albumin than insulin detemir” value is given as 2.4 fold.

Consider oxytocin, for which the half-life in series [1] was 10 to 15 min.

Consider albumin (from UniProt P02768), for which, in series [2], the pKd was 5.38.

In the case of (F)-EYEKpalmEYE [tag], the “improvement of Kd compared to the starting peptide-palmitoyl tag” value at Human albumin came out at 27 fold.
